Results on one molecule are retold here after paper PMC11945486, “TAS1R2/TAS1R3 Single-Nucleotide Polymorphisms Affect Sweet Taste Receptor Activation by Sweeteners: The SWEET Project” (Nutrients, 2025).

The assay addresses T1, human TAS1R2-P21L (subunit alone) (Homo sapiens, UniProt Q8TE23, P21L).
T1 construct: expressed in transfected cells; host or cells: HEK293T-Gα16gust44
T1 sequence (Q8TE23 20-839 P21L): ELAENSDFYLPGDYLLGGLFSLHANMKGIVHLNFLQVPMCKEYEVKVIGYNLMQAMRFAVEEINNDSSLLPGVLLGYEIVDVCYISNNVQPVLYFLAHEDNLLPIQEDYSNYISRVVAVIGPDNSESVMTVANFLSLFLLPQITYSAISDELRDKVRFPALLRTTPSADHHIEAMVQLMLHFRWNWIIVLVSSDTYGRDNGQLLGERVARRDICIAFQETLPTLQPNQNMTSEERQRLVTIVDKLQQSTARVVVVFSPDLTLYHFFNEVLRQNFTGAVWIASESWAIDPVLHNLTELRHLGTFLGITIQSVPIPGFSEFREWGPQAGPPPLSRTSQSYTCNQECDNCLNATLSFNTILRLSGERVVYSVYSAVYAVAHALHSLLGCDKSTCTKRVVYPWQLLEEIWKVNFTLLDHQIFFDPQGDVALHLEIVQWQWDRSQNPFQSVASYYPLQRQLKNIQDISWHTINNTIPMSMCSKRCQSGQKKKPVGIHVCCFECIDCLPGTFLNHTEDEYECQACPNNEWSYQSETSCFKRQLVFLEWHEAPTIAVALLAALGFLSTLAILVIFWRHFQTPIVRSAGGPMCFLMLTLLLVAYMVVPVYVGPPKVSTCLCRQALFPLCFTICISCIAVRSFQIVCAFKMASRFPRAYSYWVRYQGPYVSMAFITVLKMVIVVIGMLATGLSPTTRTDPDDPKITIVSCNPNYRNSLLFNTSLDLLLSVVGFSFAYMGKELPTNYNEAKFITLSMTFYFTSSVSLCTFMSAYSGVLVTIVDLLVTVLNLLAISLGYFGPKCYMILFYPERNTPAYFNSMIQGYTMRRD
Description: Calcium mobilisation assay, TAS1R2-P21L subunit alone. The format is cell-based. The source says: The coding sequences for TAS1R2 and TAS1R3 were commercially synthesised, and the human codon was optimised for expression in human cells. The coding sequences of human TAS1R2 and TAS1R3 were subcloned and inserted into the mammalian expression vectors pcDNA6/myc-HisA and pcDNA4/myc-HisA (Invitrogen; Thermo Fisher Scientific; Illkirch, France) between the EcoRI and NotI restriction sites, generating the plasmids pcDNA6-TAS1R2 and pcDNA4-TAS1R3, respectively. To increase protein expression in mammalian cells, an upstream start codon was used, which was a sequence called MAX, corresponding to the QBI SP163 element also described in pcDNA4-HisMax (Invitrogen; Thermo Fisher Scientific; Illkirch, France). To measure the expression level of the receptor by immunohistochemistry, we used the FLAG sequence ([…]) in the C-terminal position, which encodes the FLAG tag epitope. […]
The HEK293T cells were kindly provided by Jay P. Slack (Givaudan Flavors Corporation; Cincinnati, OH, USA). […] The fluorescence intensity was measured for 90 s (excitation 488 nm, emission 510 nm) in an automated fluorometric FlexStation®3 Multi-Mode microplate reader (Molecular Devices; San Jose, CA, USA). […] The Ca^2+ changes were expressed as fractional changes in fluorescent light intensity: ΔF/F = (F − F0)/F0, where F was the fluorescent light intensity at each point, and F0 was the value of emitted fluorescent light prior to stimulus application. To calculate dose–response relationships, the changes in fluorescence upon stimulus application were averaged, mock-subtracted and baseline-corrected. […] The half-maximal effective concentrations (EC50 values) and maximal signal amplitudes were calculated using SigmaPlot software (version 15.0) (Systat Software; San Jose, CA, USA).
For in vitro calcium mobilisation assay performed on hTAS1R2-SNPs, hTAS1R3-SNPs and mTAS1R3-I60T, 6 to 7 concentrations were tested for each sweet compound, plus buffer alone. All concentration–receptor combinations were measured in duplicate, and each experiment was repeated at least 4 times (8 wells/concentration). […]
On the technique in general: A change in cytosolic calcium serves as a functional read-out for many receptors and channels.

For orientation: EC50 means the midpoint of the concentration-response curve. Regarding `C=C(C)[C@@H]1CC=C(/C=N/O)CC1` [Perillartine, perillartine], the EC50 amounted to 149 ± 22.7 µM and the “R1 = Variant EC50/WT EC50” value was 1.7. For the setting “maximal signal amplitude”, the “Max ΔF/F0” value is given as 0.33 ± 0.02.
